Literature values, collected in US9084755B2, “Method for extracting and separating ginkgolides” (CHENGDU BAIYU TECHNOLOGY PHARMACY CO., LTD, priority 2012, dated 2015).

Target: platelet-activating factor PAF receptor (Homo sapiens, UniProt P25105)
Details: compared among ginkgolides

Chain of platelet-activating factor PAF receptor (P25105 whole entry): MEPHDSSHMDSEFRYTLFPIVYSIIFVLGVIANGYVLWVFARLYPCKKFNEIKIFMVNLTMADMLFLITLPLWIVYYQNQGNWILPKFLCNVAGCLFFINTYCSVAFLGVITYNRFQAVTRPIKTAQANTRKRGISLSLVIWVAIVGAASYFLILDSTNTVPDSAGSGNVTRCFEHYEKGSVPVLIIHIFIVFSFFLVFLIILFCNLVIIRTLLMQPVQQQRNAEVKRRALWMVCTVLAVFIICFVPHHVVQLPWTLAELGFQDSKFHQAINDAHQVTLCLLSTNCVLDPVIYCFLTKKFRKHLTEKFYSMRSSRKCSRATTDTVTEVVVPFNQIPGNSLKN

## C[C@@H]1C(=O)O[C@H]2[C@H](O)C34[C@H]5C[C@@H](C(C)(C)C)[C@]36[C@@H](OC(=O)[C@@H]6O)O[C@@]4(C(=O)O5)[C@@]12O (stereo partly shown) [ginkgolide B]
  antagonism to the PAF: strongest
